The results in this text go back to patent US9981945B2, “Pyrimidine derivatives as CFTR modulators” (NuBridge BioSciences, priority 2015, dated 2018).

Structures are written as SMILES.

The target of this experiment is T1, ΔF508 mutant CFTR (Homo sapiens, UniProt P13569, DEL508-508).
T1 construct: expressed in transfected cells; host or cells: Fischer rat thyroid (FRT) cells
T1 sequence (P13569 with tags, fused parts or gaps DEL508-508): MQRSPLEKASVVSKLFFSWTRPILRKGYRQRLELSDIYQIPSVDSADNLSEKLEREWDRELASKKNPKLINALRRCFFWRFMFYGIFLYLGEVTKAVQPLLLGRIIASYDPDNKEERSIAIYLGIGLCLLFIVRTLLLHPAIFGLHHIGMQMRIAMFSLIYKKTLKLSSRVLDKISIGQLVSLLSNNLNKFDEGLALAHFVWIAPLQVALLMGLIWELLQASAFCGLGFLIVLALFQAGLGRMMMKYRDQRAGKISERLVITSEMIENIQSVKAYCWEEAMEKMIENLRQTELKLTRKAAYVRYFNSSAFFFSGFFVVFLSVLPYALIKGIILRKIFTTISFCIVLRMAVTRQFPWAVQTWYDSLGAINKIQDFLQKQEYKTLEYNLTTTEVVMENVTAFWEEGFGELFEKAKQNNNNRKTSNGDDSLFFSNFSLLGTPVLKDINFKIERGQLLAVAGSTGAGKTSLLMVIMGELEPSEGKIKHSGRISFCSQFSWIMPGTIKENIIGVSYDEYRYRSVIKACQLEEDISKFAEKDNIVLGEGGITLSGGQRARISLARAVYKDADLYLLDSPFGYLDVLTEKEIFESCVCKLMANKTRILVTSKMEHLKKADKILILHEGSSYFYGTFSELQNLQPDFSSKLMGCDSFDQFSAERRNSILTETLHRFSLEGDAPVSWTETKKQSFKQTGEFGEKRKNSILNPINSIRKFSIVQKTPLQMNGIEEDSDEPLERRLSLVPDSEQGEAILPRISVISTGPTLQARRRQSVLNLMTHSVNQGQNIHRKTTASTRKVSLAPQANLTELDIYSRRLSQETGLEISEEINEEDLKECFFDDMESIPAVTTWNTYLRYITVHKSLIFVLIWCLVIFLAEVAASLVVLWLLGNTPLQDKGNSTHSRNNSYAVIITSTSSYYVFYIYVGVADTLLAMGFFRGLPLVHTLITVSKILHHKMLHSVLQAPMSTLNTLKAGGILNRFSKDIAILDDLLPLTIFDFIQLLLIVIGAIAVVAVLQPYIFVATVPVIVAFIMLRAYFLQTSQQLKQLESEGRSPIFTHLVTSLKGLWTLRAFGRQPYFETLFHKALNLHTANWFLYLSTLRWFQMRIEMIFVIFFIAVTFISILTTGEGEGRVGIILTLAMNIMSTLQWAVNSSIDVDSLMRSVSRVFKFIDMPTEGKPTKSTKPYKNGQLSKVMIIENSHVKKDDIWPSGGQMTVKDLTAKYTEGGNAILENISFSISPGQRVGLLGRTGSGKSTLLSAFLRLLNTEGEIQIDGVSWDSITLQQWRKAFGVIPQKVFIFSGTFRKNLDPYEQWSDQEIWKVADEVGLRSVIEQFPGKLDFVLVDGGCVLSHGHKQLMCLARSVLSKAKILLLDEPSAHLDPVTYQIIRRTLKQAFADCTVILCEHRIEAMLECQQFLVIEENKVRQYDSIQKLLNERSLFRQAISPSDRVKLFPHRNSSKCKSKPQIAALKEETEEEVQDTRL
Put plainly: Fluorescence (YFP halide quenching) assay of ΔF508 mutant CFTR activity in FRT cells. It is filed as cell-based. Details: key: fold of mean activity with forskolin alone (I− quenching rate). The conditions noted are these: FRT cells expressing ΔF508-CFTR and YFP-H148Q/I152L, rescued at 27° C. 20-24 h; forskolin 20 μM + test compound 20 μM for 20 min; I− influx rate normalized to forskolin alone. The source says:
The ΔF508 mutant CFTR activities of the CFTR modulators are detected using the Fluorescence Assay developed by Pedemonte (Pedemonte N., et al., Antihypertensive 1,4-dihydropyridines as correctors of the cystic fibrosis transmembrane conductance regulator channel gating defect caused by cystic fibrosis mutations, Mol. Pharmacol., 2005, 68, 1736-1746).
Fischer rat thyroid (FRT) cells, stably transfected with ΔF508 were retransfected with the YFP-H148Q/I152L fluorescent protein. The cells were plated (100,000 cells/well) on black 96-well microplates with clear plastic bottom (Corning Life Sciences, Acton, Mass.).
The 96-well microplates containing FRT cells expressing F508-CFTR and the halide-sensitive YFP were incubated at 27° C. for 20 to 24 h to allow rescue of the mutant protein to the plasma membrane. After incubation, cells were washed with PBS (containing 137 mM NaCl, 2.7 mM KCl, 8.1 mM Na2HPO4, 1.5 mM KH2PO4, 1 mM CaCl2, and 0.5 mM MgCl2) and stimulated for 20 min with forskolin (20 μM) and test compounds (20 μM) in a final volume of 60 μl. Microplates were then transferred to a microplate reader for CFTR activity determination. Each assay consisted of a continuous 14-s fluorescence reading (5 points per second) with 2 s before and 12 s after injection of 165 μl of an iodide-containing solution (PBS with Cl^− replaced by I^−). Final iodide concentration in the wells was 100 mM. […] To determine I^− influx rate, the final 11 s of the data for each well were fitted with an exponential function to extrapolate initial slope. CFTR activity was determined by measuring the rate of fluorescence quenching induced by extracellular addition of I^−. Data are normalized to the mean activity measured in the presence of forskolin alone.
Take `Cl.NCC(CO)COc1ncncc1NC(=O)c1nc(-c2c(F)cccc2F)c(C(F)(F)F)cc1N` (centres unmarked) [Example 59, 3-amino-N-(4-(3-amino-2-(hydroxymethyl)propoxy)pyrimidin-5-yl)-6-(2,6-difluorophenyl)-5-(trifluoromethyl)picolinamide hydrochloride]: the “CFTR Activity” value is 3.0.

`Cl.Nc1cc(C(F)(F)F)c(-c2ccccc2)nc1C(=O)Nc1cncnc1OC1CCNC1` (centres unmarked) [Example 53, 3-amino-6-phenyl-N-(4-(pyrrolidin-3-yloxy)pyrimidin-5-yl)-5-(trifluoromethyl)picolinamide hydrochloride]: the “CFTR Activity” value turned out to be 2.4.

Regarding `Cl.O=C(Nc1cncnc1OCC1CCNCC1)c1ccc(F)c(-c2c(F)cccc2F)n1` [Example 1, 6-(2,6-difluorophenyl)-5-fluoro-N-(4-(piperidin-4-ylmethoxy)pyrimidin-5-yl)picolinamide hydrochloride], the “CFTR Activity” value is 1.2.

On to `CN(C)CCCOc1ncncc1NC(=O)c1ccc(F)c(-c2c(F)cccc2F)n1.Cl` [Example 14, 6-(2,6-difluorophenyl)-N-(4-(3-(dimethylamino)propoxy)pyrimidin-5-yl)-5-fluoropicolinamide hydrochloride], for which the “CFTR Activity” value came to 0.2.

Take `Cl.Nc1cc(C(F)(F)F)c(-c2c(F)cccc2F)nc1C(=O)Nc1cncnc1OC1CCCC(N)C1` (centres unmarked) [Example 61, 3-amino-N-(4-((3-aminocyclohexyl)oxy)pyrimidin-5-yl)-6-(2,6-difluorophenyl)-5-(trifluoromethyl)picolinamide hydrochloride]: the “CFTR Activity” value worked out at 4.2.

Take `Cl.NCC(CCl)COc1ncncc1NC(=O)c1nc(-c2c(F)cccc2F)c(F)cc1N` (centres unmarked) [Example 34, 3-amino-N-(4-(3-amino-2-(chloromethyl)propoxy)pyrimidin-5-yl)-6-(2,6-difluorophenyl)-5-fluoropicolinamide hydrochloride]: the “CFTR Activity” value is 2.0.

Consider `CNCCCCOc1ncncc1NC(=O)c1ccc(F)c(-c2c(F)cccc2F)n1.Cl` [Example 16, 6-(2,6-difluorophenyl)-5-fluoro-N-(4-(4-(methylamino)butoxy)pyrimidin-5-yl)picolinamide hydrochloride], for which the “CFTR Activity” value came out at 0.5.

In the case of `Cl.O=C(Nc1cncnc1OC1CCNCC1)c1ccc(C(F)(F)F)c(-c2c(F)cccc2F)n1` [Example 45, 6-(2,6-difluorophenyl)-N-(4-(piperidin-4-yloxy)pyrimidin-5-yl)-5-(trifluoromethyl)picolinamide hydrochloride], the “CFTR Activity” value stood at 2.7.
